Measured values as given in US20230414628A1, “METHODS FOR TREATING DISEASES MEDIATED BY GLUTATHIONE PEROXIDASE 4” (priority 2022, published 2023).
pEC50: −log10 of the molar value. Counter-ions that a name gives are not always drawn.

tested on: RAG01 (derived from fibroblasts of a patient diagnosed with SSMD) fibroblasts; assay: CellTiter-Glo concentration response in RAG01 fibroblasts; type: cell-based, human; details: Homo sapiens, Fibroblast; RAG01 cell line; 72 hours incubation; CellTiter-Glo; percentage effect normalized to vehicle control; 10-point CRC from 10 μM; read-out: EC50
Description: Compounds described herein were tested in three cell lines, RAG01 (derived from fibroblasts of a patient diagnosed with SSMD) fibroblasts, RAG02 (derived from fibroblasts of the patient's parent), and GM09503 (from supplier Corriell) (derived from a healthy donor) to each generate 10-point concentration response curves (CRC). The three cell lines were each thawed seven (7) days prior to seeding. The RAG01 cells were thawed in a medium supplemented with a-tocopherol. Cells were passaged four (4) days prior to the seeding. The α-tocopherol was removed from the RAG01 cells. Cells were then seeded at 900 cells per well in 384-well plates. Two replicates were prepared for two independent (replicate) experiments. All plates were then incubated with compounds described herein for 72 hours, prior to CellTiter-Glo assay. […] The assay was run using the CellTiter-Glo (Promega) following manufacturer's guidelines and luminescent spectrophotometric reading on PHERAstar FSX (BMG Labtech). A 0.1% dimethylsulfoxide (DMSO) was used as a blank (vehicle control); and a 1 μM Ferrostatin-1 was used as a control (CTRL).
The raw data was analyzed using Activity Base® software. The compounds were evaluated by efficacy (percentage effect) normalized to the vehicle control. The percentage effect (PE) was determined from the signal increase in comparison to the vehicle control according to the formula below: […]
The percentage effect values were then plotted against log concentration of the drug to generate a concentration response curve. The curves were fitted using a four-parameter fit, and curve tops and hillslopes were fixed where required and justified.

Structure (SMILES)	pEC50
CC1=C(C(=O)OC(C)C)C(c2cccc([N+](=O)[O-])c2)C(C(=O)OC2CN(C(c3ccccc3)c3ccccc3)C2)=C(N)N1 (stereo not shown) [compound 1, azelnidipine]	5.51
COC(=O)C1=C(C)NC(C)=C(C(=O)OCCN2CCN(C(c3ccccc3)c3ccccc3)CC2)C1c1cccc([N+](=O)[O-])c1 (stereo not shown) [compound 2, manidipine]	5.54
Cc1c(-c2ccc(O)cc2)n(Cc2ccc(OCCN3CCCCCC3)cc2)c2ccc(O)cc12 [compound 3, bazedoxifene]	6.62
CN1CCN(c2ccc(C(=O)c3c(-c4ccc(O)cc4)sc4cc(O)ccc34)cc2)CC1 [compound 4, Y-134]	6.37
O=C(c1ccc(OCCN2CCCCC2)cc1)c1c(-c2ccc(O)cc2)sc2cc(O)ccc12 [compound 5, raloxifene]	6.34
CCCCCS(=O)(=O)CCCCCCCCCCn1c(-c2ccc(O)cc2)c(C)c2cc(O)ccc21 [compound 6, ZK-164015]	5.79
Brc1cc2c(cc1[C@@H]1Nc3ccccc3[C@@H]3C=CC[C@@H]31)OCO2 [compound 7, G-15]	5.78
CC(C)=CCc1c(O)cc(O)c2c(=O)c(O)c(-c3ccc(C(F)(F)F)cc3)oc12 [compound 8, SNG1153]	5.26
COc1ccc(Nc2ccn(-c3ccccc3)n2)cc1 [compound 9, FPL 62064]	7.28
O=C1c2ccccc2-n2c1nc1ccccc1c2=O [compound 10, trypthanthrin]	6.74
C=CCc1ccc(O)c(-c2ccc(O)c(CC=C)c2)c1 [compound 12, honokiol]	5.92
CC1(S(=O)(=O)O)CC(=O)c2ccccc2C1=O (stereo not shown) [compound 13]	5.80
COC1=C(OC)C(=O)C(CCCCCCCCCCO)=C(C)C1=O [compound 14, idebenone]	5.80
CC(c1cc2ccccc2s1)N(O)C(N)=O (stereo not shown) [compound 15, Zileuton]	5.73
O=c1c(O)c(-c2ccc(O)cc2)oc2cc(O)cc(O)c12 [compound 16, kaempferol]	5.49
CCNCc1cc(C(C)(C)C)c(O)c(C(C)(C)C)c1 [compound 17, LY 231617]	5.13
CC(=O)O[C@]1(C(C)=O)CC[C@H]2[C@@H]3CCC4=CC(=O)CCC4=C3[C@@H](c3ccc(N(C)C)cc3)C[C@@]21C [compound 18, ulipristal acetate]	5.63
C#C[C@]1(O)CC[C@H]2[C@@H]3CCc4cc(O)ccc4[C@H]3CC[C@@]21C [compound 19, ethinyl estradiol]	5.35
CC#C[C@]1(O)CC[C@H]2[C@@H]3CCC4=CC(=O)CCC4=C3[C@@H](c3ccc(N(C)C)cc3)C[C@@]21C [compound 20, Mifepristone]	5.64
Oc1ccc(/C=C/c2cc(O)cc(O)c2)cc1 [compound 22, resveratrol]	5.17
COc1cc(/C=C/c2ccc(O)cc2)cc(OC)c1 [compound 23, pterostilbene]	5.79

Structure (SMILES)	pEC50
CC(Cc1ccc(O)c(O)c1)C(C)Cc1ccc(O)c(O)c1 (stereo not shown) [compound 24, Nordihydroguaiaretic acid]	5.60
COc1cc(C[C@H](C)[C@H](C)Cc2ccc3c(c2)OCO3)ccc1O [compound 25, macelignan]	5.54
CC(=O)Oc1c(C)cc(OCC(O)CNC(C)C)c(C)c1C (stereo not shown) [compound 26, metipranolol]	6.39
CC(C)NCC(O)COc1cccc2[nH]c3ccccc3c12 (stereo not shown) [compound 27, carazolol]	5.51
COc1ccccc1OCCNCC(O)COc1cccc2[nH]c3ccccc3c12 (stereo not shown) [compound 28, carvedilol]	5.31
CCc1cc2c(cc1CC)CC(NC[C@H](O)c1ccc(O)c3[nH]c(=O)ccc13)C2 [compound 29, indacaterol]	5.86
CC(=O)Oc1cc(C(C)C)c(OCCN(C)C)cc1C [compound 30, Moxisylyte]	6.13
Cc1cc(C(C)(C)C)c(O)c(C)c1CC1=NCCN1 [compound 31, oxymetazoline]	5.84
CN1CCN2c3c(cccc31)[C@@H]1CN(CCCC(=O)c3ccc(F)cc3)CC[C@@H]12 [compound 32, lumateperone]	6.20
Clc1ccc2c(c1)N=C(N1CCNCC1)c1ccccc1N2 [compound 34, desmethylclozapine]	5.57
CC(C)(C)[C@@]1(O)CCN2C[C@@H]3c4ccccc4CCc4cccc(c43)[C@H]2C1 [compound 35, butaclamol]	5.59
CN1CCc2cccc3c2[C@H]1Cc1ccc(O)c(O)c1-3 [compound 36, apomorphine]	6.85
Oc1cc2c(cc1O)C(c1ccccc1)CNCC2 (stereo not shown) [compound 38, SKF-38,393]	5.37
CCCN(C/C=C/I)C1CCc2ccc(O)cc2C1 (stereo not shown) [compound 40, 7-hydroxy-PIPAT]	5.56
CCCN(CCc1cccs1)[C@H]1CCc2c(O)cccc2C1 [compound 41, rotigotine]	5.40
CCOC(=O)Nc1ccc2c(c1)N(C(=O)CCN(CC)CC)c1ccccc1S2 [compound 42, ethacizine]	6.32
CC(CN(C)C)CN1c2ccccc2Sc2ccc(C#N)cc21 (stereo not shown) [compound 43, cyamemazine]	5.86
OCCN1CCN(CCCN2c3ccccc3Sc3ccc(Cl)cc32)CC1 [compound 44, perphenazine]	5.85
O=C(CN1CCN(Cc2ccc3c(c2)OCO3)CC1)N1c2ccccc2Sc2ccccc21 [compound 46, fenoverine]	5.82
CC(CN(C)C)CN1c2ccccc2Sc2ccccc21 (stereo not shown) [compound 47, trimeprazine]	5.78
CN1CCCC(CN2c3ccccc3Sc3ccccc32)C1 (stereo not shown) [compound 48, mepazine]	5.73

Structure (SMILES)	pEC50
COc1ccc2c(c1)N(C[C@H](C)CN(C)C)c1ccccc1S2 [compound 49, Levomepromazine]	5.49
COc1ccc2cccc(N3CCN(CCNC(=O)c4ccc(F)cc4)CC3)c2c1 [compound 50, S-14,506]	6.03
Cc1[nH]c2ccc(Cl)cc2c1C1=CCNCC1 [compound 51, EMD-386088]	5.87
CCCN(C/C=C/I)C1CCc2cccc(O)c2C1 (stereo not shown) [compound 52, 8-hydroxy-PIPAT]	5.62
COc1ccc(CC2NCCc3c2[nH]c2ccc(C)cc32)c(Cl)c1OC (stereo not shown) [compound 53, LY-266,097]	5.57
Oc1ccc2c3c1OC1c4c(c5ccccc5n4Cc4ccccc4)C[C@@]4(O)C(C2)N(CC2CC2)CC[C@]314 (stereo partly shown) [compound 54, N-Benzylnaltrindole HCl]	6.42
Oc1ccc2c3c1O[C@H]1c4oc5ccccc5c4C[C@@]4(O)[C@@H](C2)N(CC2CC2)CC[C@]314 [compound 55, Naltriben]	5.88
C=C(C)CN1CC[C@]23c4c5ccc(O)c4OC2c2[nH]c4ccccc4c2C[C@@]3(O)[C@H]1C5 (stereo partly shown) [compound 56, SDM25N]	5.85
Oc1ccc2c3c1O[C@H]1c4[nH]c5ccccc5c4C[C@@]4(O)[C@@H](C2)N(CC2CC2)CC[C@]314 [compound 57, Naltrindole]	5.62
CC(C)(CO)Cc1cc(C(C)(C)C)c(O)c(C(C)(C)C)c1 [compound 58, 2,6-ditert-butyl-4-(3-hydroxy-2,2-dimethylpropyl)phenol]	6.46
CC(C)(C=O)Cc1cc(C(C)(C)C)c(O)c(C(C)(C)C)c1 [compound 59, 3-(3,5-Ditert-butyl-4-hydroxyphenyl)-2,2-dimethylpropanal]	6.03
Brc1ccc(NC2C3CC4CC(C3)CC2C4)cc1 (stereo not shown) [compound 60, bromantane]	6.37
COc1cc2c(cc1O)C(CCc1ccc(Cl)cc1)N(C)CC2 (stereo not shown) [compound 61, Ro 04-5595]	6.19
COc1ccc2c(c1)CN(C)CC2c1ccc(Cl)c(Cl)c1 (stereo not shown) [compound 62, Diclofensine]	5.41
CO[C@H]1/C=C/O[C@@]2(C)Oc3c(C)c(O)c4c(O)c(c5c(nc6cc(C)ccn65)c4c3C2=O)NC(=O)/C(C)=C\C=C\[C@H](C)[C@H](O)[C@@H](C)[C@@H](O)[C@@H](C)[C@H](OC(C)=O)[C@@H]1C [compound 64, rifaximin]	6.15
CC(C)(C)CC(C)(C)c1ccc(O)c(Cc2ccc(Cl)cc2Cl)c1 [compound 65, clofoctol]	5.65
O=C1NC(=O)c2cc(Nc3ccccc3)c(Nc3ccccc3)cc21 [compound 66, CGP 52411]	6.69
C=CC(=O)Nc1cc(Nc2nccc(-c3cn(C)c4ccccc34)n2)c(OC)cc1N(C)CCN(C)C [compound 67, osimertinib]	6.61
C=CC(=O)Nc1cccc(Nc2nc(Nc3ccc(NC4CN(CCF)C4)cc3OC)ncc2C(F)(F)F)c1 [compound 68, CNX-2006]	6.44
C=CC(=O)Nc1cccc(Oc2nc(Nc3ccc(N4CCN(C)CC4)cc3)nc3ccsc23)c1 [compound 70, Olmutinib]	6.31
CS(=O)(=O)CCNCc1ccc(-c2ccc3ncnc(Nc4ccc(OCc5cccc(F)c5)c(Cl)c4)c3c2)o1 [compound 71, lapatinib]	5.29

same assay, conditions: RAG01 cell line; 72 hours incubation; CellTiter-Glo; percentage effect normalized to vehicle control; 10-point CRC from 10 μM; read-out: EC50

Structure (SMILES)	pEC50
NC[C@@H]1O[C@H](C23CC4CC(CC(C4)C2)C3)Cc2c1ccc(O)c2O [compound 39, A77636]	6.19
